Test results as given in US20250145576A1, “CATHEPSIN K INHIBITOR, AND PREPARATION METHOD THEREFOR AND USE THEREOF” (SHANDONG NEW TIME PHARMACEUTICAL CO., LTD., priority 2022, published 2025).
pIC50: −log10 of the molar value. Read-outs that look alike come from different tables or passages of the source. Values belong to the compound of their own block, whether it stands above or below them.

Columns and labels:
[1] = molecular target: Cathepsin K (Homo sapiens (Human), UniProt P43235); assay: Cat K inhibitor screening kit, AFC substrate fluorescence; assay type: biochemical
Chain of Cathepsin K (P43235 115-329): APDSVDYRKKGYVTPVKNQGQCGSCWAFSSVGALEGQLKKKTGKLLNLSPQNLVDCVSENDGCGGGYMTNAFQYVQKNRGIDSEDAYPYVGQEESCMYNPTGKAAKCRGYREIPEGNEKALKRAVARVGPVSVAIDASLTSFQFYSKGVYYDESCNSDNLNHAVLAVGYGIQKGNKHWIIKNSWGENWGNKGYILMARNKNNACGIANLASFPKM
Procedure: Reagent information: Cat K inhibitor screening kit: batch number, 6L23K01500; supplier, BiVision. Drug preparation: compounds were dissolved in DMSO and prepared into 10 mM stock solutions. When in use, the stock solutions were prepared into the required concentrations by using a buffer.
Cathepsin K (CTSK, EC 3.4.22.38) is a lysosomal cysteine protease, participates in osteoclastic bone remodeling and resorption, and can further degrade collagen, gelatin and elastin. The cathepsin K inhibitor screening kit from Biovision uses the ability of the active cathepsin K to cleave a synthetic AFC-based peptide substrate to release AFC and the AFC can be easily quantified by using a fluorometer or fluorescent microplate reader. In the presence of a specific cathepsin K specific inhibitor, the cleavage of the substrate is reduced/eliminated, resulting in a reduction or complete loss of AFC fluorescence. The simple and high-throughput adaptive assay kit can be used to screen/study/characterize a potential inhibitor of the cathepsin K.
(§1) 20 μL of a buffer, a Cat K inhibitor and test compounds (1 μM and 10 μM) were added to 96-well plates to serve as an EC well, an IC well and an S well, respectively; 50 μL of a Cat K enzyme solution was added into all the wells respectively and the mixture was incubated for 10-15 min at room temperature to establish an enzyme inhibitor complex; 30 μL of a Cat K substrate solution was added into all the wells and the mixture was incubated for 30-60 min at room temperature; and the final volume of the reaction was 100 μL.
The screening method was the same as 1.1, the concentrations of the test compounds were set between 0.1 nM and 10 μM, 4-5 concentrations were selected for detection, IC50 curves were drawn, and IC50 values were calculated.

[2] = tested on: Cathepsin S; assay: Screening of Cathepsin S, fluorescence; assay type: biochemical; settings: >> inhibition rate did not exceed 20% at test concentration; > greater than 35%; ≈ about 50%; < less than 50%
Procedure: as §1, with “10 μL of” for “20 μL of”, “a Cat S inhibitor and” for “a Cat K inhibitor and”, “a […]” for “a Cat K enzyme solution”, “inhibitor complex; 40 μL of” for “inhibitor complex; 30 μL of”, “a Cat S substrate solution” for “a Cat K substrate solution”
(§2) The screening method was the same as above, the concentrations of the test compounds were set between 0.1 nM and 10 μM, 4-5 concentrations were selected for detection, IC50 curves were drawn, and IC50 values were calculated.

[3] = molecular target: Cathepsin B (Homo sapiens (Human), UniProt P07858); assay: Screening of Cathepsin B, fluorescence; assay type: biochemical; settings: >> inhibition rate did not exceed 20% at test concentration; > greater than 35%; ≈ about 50%; < less than 50%
Procedure: as §1, with “10 μL” for “20 μL”, “Cat B” for “Cat K”, “complex; 40” for “complex; 30”
as §2

[4] = tested on: RAW264.7 cells; assay: Osteoclast differentiation of RAW264.7 cells induced by RANKL, TRAP staining; assay type: cell-based; settings: for osteoclastogenesis compared with model group (in words): K29 at 1 μM and 10 μM, K31 at 100 nM and 500 nM
Procedure: RAW264.7 cells were inoculated at a density of 1×10^5/well in 96-well plates and cultured in DMEM containing 10% fetal bovine serum and 1% penicillin/streptomycin. The cells were cultured in a constant-temperature incubator containing 5% CO2 at 37° C. 100 ng/mL of a RANKL inducing solution was added into each well of the administration groups and a model group to culture osteoclasts, the solution (containing RANKL) was changed every 2-3 days, inhibitor working solutions with different concentrations were added into the administration groups after the solution was changed for the 3rd time, a PBS working solution with the same volume was added into the model group, and the cells were continuously cultured for 24 h; and in the control group, the RANKL inducing solution and the inhibitor working solution were not added, and the PBS working solution with the same total volume was added. A culture supernatant was removed, the cells were rinsed 3 times with PBS and stained with a TRAP staining kit, and the multinucleated osteoclasts were observed under an optical microscope and counted.

[5] = set-up: species or system SD rats; settings: rat, in vivo
Procedure: • Chromatographic column: […] Electrospray ionization (ESI); ion spray voltage: 3,500 V; ion source temperature: 300° C.; auxiliary gas: 45 Arb; and sheath gas: 10 Arb. • Intravenous intraperitoneal administration solution: prepared with 0.5% HS-15 normal saline solution with the concentration of 0.2 mg/mL; and • intragastric administration suspension: ground and suspended with 0.5% CMC-Na aqueous solution with the concentration of 0.5 mg/mL. Each administration was tested using 2 SD rats per compound. The two compounds […] were subjected to intravenous injection and intragastric administration respectively. […] All blood samples were anticoagulated by heparin and centrifuged for 10 min at 4,000 g. The supernatant plasma was taken for cryopreservation to be tested. 50 μL of the plasma sample was taken, 150 μL of acetonitrile was added, the mixture was evenly mixed by vortex and centrifuged at 9,100 g for 10 min, and a supernatant was taken and 2 μL of the supernatant was injected and detected on a machine.

pIC50 [1]: 6.30 to 7.00
Cat B/K ratio of inhibitory activities [3]: >>2,100
Compound: CC(C)(C)CN(Cc1ccc(-c2ccccc2)cc1)c1nccc(C#N)n1 [Compound K2, 2-[(2,2-dimethylpropyl)[(4-phenylphenyl)methyl]amino]pyrimidine-4-carbonitrile]
Cat S/K ratio of inhibitory activities [2]: >>2,100

pIC50 [1]: 6.30 to 7.00
Cat B/K ratio of inhibitory activities [3]: >>3,300
Compound: CC(C)(C)CN(Cc1ccc(-c2ccc(S(C)(=O)=O)cc2)cc1)c1nccc(C#N)n1 [Compound K6, 2-[(2,2-dimethylpropyl) ({4-[4-(methylsulfonyl)phenyl]phenyl}methyl)amino]pyrimidine-4-carbonitrile]
Cat S/K ratio of inhibitory activities [2]: >>3,300

pIC50 [1]: 6.30 to 7.00
Compound: CC(C)(C)CN(Cc1ccc(-c2ccc(C#N)s2)cc1)c1nccc(C#N)n1 [Compound K7, 2-({[4-(5-cyanothiophen-2-yl)phenyl]methyl}(2,2-dimethylpropyl)amino)pyrimidine-4-carbonitrile]

pIC50 [1]: 6.30 to 7.00
Compound: Cc1ccc(-c2ccc(CN(CC(C)(C)C)c3nccc(C#N)n3)cc2)s1 [Compound K10, 2-[(2,2-dimethylpropyl){[4-(5-methylthiophen-2-yl)phenyl]methyl}amino]pyrimidine-4-carbonitrile]

pIC50 [1]: 6.30 to 7.00
Compound: CC(C)(C)CN(Cc1ccc(-c2cscn2)cc1)c1nccc(C#N)n1 [Compound K17, 2-(neopentyl(4-(thiazol-4-yl)benzyl)amino)pyrimidine-4-carbonitrile]

The next lines start with the compound.

Compound: CN1CCN(c2ccc(CN(CC(C)(C)C)c3nccc(C#N)n3)cc2)CC1 [Compound K1, 2-[(2,2-dimethylpropyl){[4-(4-methylpiperazin-1-yl)phenyl]methyl}amino]pyrimidine-4-carbonitrile]
pIC50 [1]: 7.00 to 8.00
pIC50 ([1]; stated in text): > 7.00
Cat S/K ratio of inhibitory activities [2]: >800
Cat B/K ratio of inhibitory activities [3]: >1,600

Compound: CN1CCN(c2ccc(-c3ccc(CN(CC(C)(C)C)c4nccc(C#N)n4)cc3)cc2)CC1 [Compound K13, 2-[(2,2-dimethylpropyl) ({4-[4-(4-methylpiperazin-1-yl)phenyl]phenyl}methyl)amino]pyrimidine-4-carbonitrile]
pIC50 [1]: > 8.00
pIC50 ([1]; stated in text): > 8.00

Compound: CN1CCN(c2ccc(-c3ccc(CN(CC4CCCCC4)c4nccc(C#N)n4)cc3)cc2)CC1 [Compound K15, 2-[(cyclohexylmethyl) ({4-[4-(4-methylpiperazin-1-yl)phenyl]phenyl}methyl)amino]pyrimidine-4-carbonitrile]
pIC50 [1]: > 8.00
pIC50 ([1]; stated in text): > 8.00
Cat S/K ratio of inhibitory activities [2]: ≈7,460
Cat B/K ratio of inhibitory activities [3]: >15,000

Compound: CS(=O)(=O)c1ccc(-c2ccc(CN(CC3CCCCC3)c3nccc(C#N)n3)cc2)cc1 [Compound K16, 2-[(cyclohexylmethyl) ({4-[4-(methylsulfonyl)phenyl]phenyl}methyl)amino]pyrimidine-4-carbonitrile]
pIC50 [1]: 6.30 to 7.00
Cat S/K ratio of inhibitory activities [2]: >>3,300
Cat B/K ratio of inhibitory activities [3]: >>3,300

Compound: O=C1COCC1NC(=O)[C@@H]1CCCC[C@H]1C(=O)N1CCc2c([nH]c3c(F)cccc23)C1 (stereo partly drawn) [Compound K19, (1R,2R)-2-(8-fluoro-2,3,4,9-tetrahydro-1H-pyrido[3,4-b]indole-2-carbonyl)-N-(4-oxotetrahydrofuran-3-yl)cyclohexane-1-carboxamide]
pIC50 [1]: 7.00 to 8.00

Compound: COc1cccc2c3c([nH]c12)CCN(C(=O)[C@@H]1CCCC[C@H]1C(=O)N[C@H]1COCC1=O)C3 [Compound K29, (1R,2R)-2-(6-methoxy-2,3,4,5-tetrahydro-1H-pyrido[4,3-b]indole-2-carbonyl)-N—(S)-(4-oxotetrahydrofuran-3-yl)-cyclohexane-1-carboxamide]
Number of osteoclasts ([4]; 1 μM): 13
Number of osteoclasts ([4]; 10 μM): 11.25
osteoclastogenesis (in words) ([4]; 10 μM): obviously inhibited the osteoclastogenesis
osteoclastogenesis compared with model group (in words) [4]: tendency to inhibit osteoclastogenesis
F [5]: 62.1%
Tmax ([5]; iv, 1 mg/kg): 1.98 min
Bioavailability % ([5]; po): 62.1%
CLz ([5]; po): 26.7 mL/min/kg
Cmax ([5]; po): 1,285 ng/mL
Tmax ([5]; po): 15 min
Vz ([5]; po): 3.83 L/kg
t1/2z ([5]; po): 99 min
Tmax ([5]; po, 5 mg/kg): 15 min

Compound: COc1cc(F)cc2c3c([nH]c12)CCN(C(=O)[C@@H]1CCCC[C@H]1C(=O)N[C@H]1COCC1=O)C3 [Compound K31, (1R,2R)-2-(8-fluoro-6-methoxy-2,3,4,5-tetrahydro-1H-pyrido[4,3-b]indole-2-carbonyl)-N—(S)-(4-oxotetrahydrofuran-3-yl)-cyclohexane-1-carboxamide]
Number of osteoclasts ([4]; 100 nM): 13.25
Number of osteoclasts ([4]; 500 nM): 14
osteoclastogenesis compared with model group (in words) [4]: tendency to inhibit osteoclastogenesis
F [5]: 51.0%
Tmax ([5]; iv, 1 mg/kg): 1.98 min
Bioavailability % ([5]; po): 51.0%
CLz ([5]; po): 27.8 mL/min/kg
Cmax ([5]; po): 936 ng/mL
Tmax ([5]; po): 15 min
Vz ([5]; po): 4.38 L/kg
t1/2z ([5]; po): 109 min
Tmax ([5]; po, 5 mg/kg): 15 min

Compound: CC(C)(F)C[C@H](N[C@@H](c1ccc(-c2ccc(S(C)(=O)=O)cc2)cc1)C(F)(F)F)C(=O)NC1(C#N)CC1 [Odanacatib, reference compound]
Cat S/K ratio of inhibitory activities [2]: <290
Cat B/K ratio of inhibitory activities [3]: >590
